Tests used:
[1] = biological target: T1, collagenase derived from human gingiva fibroblasts (HGF cell) (Homo sapiens, UniProt P03956); test: Inhibitory effect on collagenase derived from HGF cells (FITC-labelled type I collagen, method of Nagai et al.); format: biochemical; details: 37° C, 4 hours; control free of test substance = 100%; read-out: 50% inhibiting concentration, Collagenase HGF (converted)
T1 construct: endogenous in cells; host or cells: human gingiva fibroblasts (HGF), serum-free conditioned medium; purified on CM Sepharose and zinc chelating Sepharose
T1 sequence (P03956 100-469): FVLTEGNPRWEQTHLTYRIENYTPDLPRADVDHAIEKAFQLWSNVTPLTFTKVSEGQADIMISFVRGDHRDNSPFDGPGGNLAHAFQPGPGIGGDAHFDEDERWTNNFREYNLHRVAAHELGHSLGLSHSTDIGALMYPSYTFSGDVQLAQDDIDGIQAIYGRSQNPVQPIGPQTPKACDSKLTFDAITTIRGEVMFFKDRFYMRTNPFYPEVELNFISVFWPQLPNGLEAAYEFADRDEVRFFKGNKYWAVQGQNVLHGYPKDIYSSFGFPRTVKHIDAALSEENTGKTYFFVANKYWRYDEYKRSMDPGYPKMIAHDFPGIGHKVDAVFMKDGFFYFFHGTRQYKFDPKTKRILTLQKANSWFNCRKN
Protocol: The collagenase derived from human gingiva fibroblasts (hereinafter abbreviated as “HGF cell”) for use in this test was prepared in the following manner: human procollagenase which was produced in Dulbecco modification MEM culture medium of non-blood serum using the HGF cells was refined using CM Sepharose™ (manufactured by Pharmacia Company) and zinc chelating Sepharose™ (manufactured by Pharmacia Company). The resulting substance was dissolved in a buffer solution and then was activated. The activation was carried out by incubating using aminophenyl acetic acid mercury (manufactured by Sigma Co.) as an activator at 37° C. for 4 hours.
The measurement of the inhibitory effects on collagenase of the extract containing the natural polyphenol of the above 1-1 was conducted by determining the collagenase activity of the extract. […] Specifically, 40 μl of activated human collagenase (2U/ml), 50 μg of the matrix and a test substance which was dissolved in 40 μl of an assay buffer were mixed. The mixture was allowed to react at 37° C for 4 hours. The collagenase activity of the control (free of the test substance) was regarded as 100%.

[2] = biological target: T2, gelatinase derived from HGF cells (Homo sapiens, UniProt P08253); test: Inhibitory effect on gelatinase derived from HGF cells (FITC-labelled type IV collagen); format: biochemical; details: 42° C; read-out: 50% inhibiting concentration, Gelatinase HGF (converted)
T2 construct: endogenous in cells; host or cells: human gingiva fibroblasts (HGF), serum-free conditioned medium; purified on gelatin Sepharose 4B
T2 sequence (P08253 110-660): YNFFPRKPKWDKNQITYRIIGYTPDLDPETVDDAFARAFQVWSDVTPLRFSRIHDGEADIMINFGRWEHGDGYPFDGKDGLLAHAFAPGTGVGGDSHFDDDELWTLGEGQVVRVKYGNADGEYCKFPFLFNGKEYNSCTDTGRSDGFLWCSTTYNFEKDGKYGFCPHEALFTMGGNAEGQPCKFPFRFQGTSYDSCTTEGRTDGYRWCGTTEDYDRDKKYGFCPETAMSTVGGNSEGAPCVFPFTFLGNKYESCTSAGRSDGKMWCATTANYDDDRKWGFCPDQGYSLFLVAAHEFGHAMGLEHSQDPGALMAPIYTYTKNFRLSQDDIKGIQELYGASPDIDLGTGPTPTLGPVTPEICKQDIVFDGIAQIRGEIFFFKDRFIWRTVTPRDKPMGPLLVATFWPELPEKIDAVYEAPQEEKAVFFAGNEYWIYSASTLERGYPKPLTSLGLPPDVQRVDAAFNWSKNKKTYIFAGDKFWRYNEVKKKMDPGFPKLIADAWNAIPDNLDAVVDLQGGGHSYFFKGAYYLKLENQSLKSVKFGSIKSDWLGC
Protocol: The measurement method was the same as the above method for measuring the inhibitory activity on the collagenase (2-1). However, the reaction temperature was set at 42° C. The measurement was also carried out on tetracycline by the same method.

[3] = test system: collagenase production by human gingiva fibroblasts and human gingival epithelium cells; details: of the medium with no nicotine added; 0.05% nicotine
Protocol: Measurements were carried out by the method described in Test Example 2. However, to the culture medium was added 0.05% nicotine, together with the test substance and 1% fetal bovine serum. The collagenase activity of the culture medium supernatant of the control (the culture medium containing only nicotine) was regarded as 100%, and the relative proportion of the collagenase activity when the test substances were added was determined.

HGF cells and HGK cells = details: of the medium with no nicotine added; 0.05% nicotine
Protocol: HGF cells and HGK cells were inoculated into separate 96-well plates for tissue culture in an amount of 5,000 cells/well. These HGF cells and HGK cells were incubated at 37° C. for 1 day. Then, the incubated HGF cells were diluted in a Dulbecco modification MEM culture medium containing the test substance, 0.05% nicotine and 1% fetal bovine serum, while the incubated HGK cells were diluted in a culture medium for epithelium containing the test substance, 0.05% nicotine and 1% fetal bovine serum. The cells were incubated on the media for 5 days, and the cell proliferation activities of the cells were observed. Meanwhile, as a control was used the culture medium to which only nicotine was added. After the test substances were cultivated for 5 days, the cells were fixed in a 10% formalin solution and staining in crystal violet. The absorbance of the resulting cells at 590 nm was determined to calculate the population of the cells. The relative proportion of the test substances when the value of the control (culture medium to which only nicotine was added) was 100% was obtained.

| SMILES | IC50 [1] [µM] | IC50 [2] [µM] | increase rate of collagenase production by addition of nicotine [3] [%] | reduction of cell proliferation by addition of nicotine (HGF cells and HGK cells) [%] |
| --- | --- | --- | --- | --- |
| CN(C)[C@@H]1C(O)=C(C(N)=O)C(=O)[C@@]2(O)C(O)=C3C(=O)c4c(O)cccc4[C@@](C)(O)[C@H]3C[C@@H]12 [Tetracycline] | 5.63 | 19.6 | – | – |
| CN1CCCC1c1cccnc1 (stereo not shown) [nicotine] | – | – | 380 | 52 |

Source: US6814958B1, “Food compositions, compositions for oral cavity and medicinal compositions for preventing or treating periodontosis and method for preventing or treating periodontosis” (priority 1998, dated 2004)
